In paper PMC3032545, “A c-di-GMP Effector System Controls Cell Adhesion by Inside-Out Signaling and Surface Protein Cleavage” (PLoS Biology, 2011) one finds IC50 data, which are given here for 1 molecule.

Molecules are shown by their SMILES.

The target of the test is T1, LapD (c-di-GMP receptor) with LapG (periplasmic protease, read-out) (Pseudomonas fluorescens, UniProt Q3KK31).
T1 construct: full-length native LapD and LapG in clarified Pf0-1 cell extracts; LapD mutants from plasmid pMQ72 in the lapD deletion strain; with Periplasmic cysteine protease LapG (transglutaminase-like cysteine peptidase, DUF920)
T1 sequence (Q3KK31 1-648): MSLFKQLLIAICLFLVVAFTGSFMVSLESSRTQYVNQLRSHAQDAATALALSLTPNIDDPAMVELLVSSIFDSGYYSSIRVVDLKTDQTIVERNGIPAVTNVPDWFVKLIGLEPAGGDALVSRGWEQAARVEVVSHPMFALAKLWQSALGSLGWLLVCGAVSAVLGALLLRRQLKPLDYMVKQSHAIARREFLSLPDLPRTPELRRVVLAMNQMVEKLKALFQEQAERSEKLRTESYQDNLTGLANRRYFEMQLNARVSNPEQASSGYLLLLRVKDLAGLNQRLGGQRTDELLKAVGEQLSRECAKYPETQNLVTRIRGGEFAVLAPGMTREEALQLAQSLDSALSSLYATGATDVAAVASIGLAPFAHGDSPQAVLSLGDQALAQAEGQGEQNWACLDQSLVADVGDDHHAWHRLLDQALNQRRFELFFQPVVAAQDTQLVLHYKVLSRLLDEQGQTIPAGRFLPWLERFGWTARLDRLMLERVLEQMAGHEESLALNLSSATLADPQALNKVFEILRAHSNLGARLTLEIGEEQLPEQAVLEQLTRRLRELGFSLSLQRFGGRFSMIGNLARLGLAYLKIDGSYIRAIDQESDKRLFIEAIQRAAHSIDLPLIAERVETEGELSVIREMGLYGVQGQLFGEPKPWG
T1 sequence (Q3KK32 50-251 partner): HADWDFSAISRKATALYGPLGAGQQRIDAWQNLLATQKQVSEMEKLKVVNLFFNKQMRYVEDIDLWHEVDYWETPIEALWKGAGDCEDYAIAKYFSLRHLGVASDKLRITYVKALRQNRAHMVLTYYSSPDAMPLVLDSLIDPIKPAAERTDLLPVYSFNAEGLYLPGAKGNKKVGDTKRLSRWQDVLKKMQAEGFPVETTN
The test can be described thus: inhibition of LapG cleavage of N-Term-LapA in cell extract, anti-His Western blot densitometry. It is filed as biochemical. To be noted: LapD-dependent: c-di-GMP binds LapD EAL domain, not LapG; wild-type Pf0-1 extract; 30 pmol N-Term-LapA, 100 min, room temperature.

As usually defined, the IC50 is the point on the concentration scale where inhibition reaches its midpoint. Take `Nc1nc2c(ncn2[C@@H]2O[C@@H]3CO[P@](=O)(O)O[C@H]4[C@@H](O)[C@H](n5cnc6c(=O)[nH]c(N)nc65)O[C@@H]4CO[P@](=O)(O)O[C@H]3[C@H]2O)c(=O)[nH]1` [c-di-GMP]: the 50% inhibitory concentration (IC50) is 2300 ± 1100 nM.
